Calls of active or inactive are those of the source.
Key:
[1] = Luminescence Cell-Based Dose Retest to Confirm Inhibitors of Cancer Stem Cells. [Related pubchem assays (depositor defined):AID2717, AID2721]; type: functional; details: Homo sapiens
[2] = system: HeLa; assay: ATP-based viability loss in HeLa cells – cell-based, CellTiter-Glo luminescence, cherry-pick samples, cytotoxicity control for MITF activator project, dose response (AID 540259); type: functional; details: Homo sapiens
[3] = system: Escherichia coli; assay: microbe, parasite or virus in culture
[4] = viability of uninfected HEp-2 cells – cell-based, HTS, cytotoxicity control for RSV inhibitor project, dose response (AID 2410); type: functional; details: human respiratory syncytial virus
[5] = system: Streptococcus sp. 'group A'; assay: Streptococcus pyogenes SK(-)GAS viability under kanamycin – luminescence, BacTiterGlo, confirmation, counter-screen for streptokinase expression inhibitor project, dose response (AID 1900); type: functional, organism-based
[6] = target: T1, Streptokinase A (Streptococcus pyogenes serotype M1, UniProt P10520); assay: viability-normalized secreted streptokinase activity reduction – plasminogen activation absorbance, OD405, dose response (AID 1914); type: functional, Streptococcus pyogenes M1 GAS;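 note: secreted streptokinase activity via plasminogen activation per viability signal from cell pellet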
T1 sequence (P10520 whole entry): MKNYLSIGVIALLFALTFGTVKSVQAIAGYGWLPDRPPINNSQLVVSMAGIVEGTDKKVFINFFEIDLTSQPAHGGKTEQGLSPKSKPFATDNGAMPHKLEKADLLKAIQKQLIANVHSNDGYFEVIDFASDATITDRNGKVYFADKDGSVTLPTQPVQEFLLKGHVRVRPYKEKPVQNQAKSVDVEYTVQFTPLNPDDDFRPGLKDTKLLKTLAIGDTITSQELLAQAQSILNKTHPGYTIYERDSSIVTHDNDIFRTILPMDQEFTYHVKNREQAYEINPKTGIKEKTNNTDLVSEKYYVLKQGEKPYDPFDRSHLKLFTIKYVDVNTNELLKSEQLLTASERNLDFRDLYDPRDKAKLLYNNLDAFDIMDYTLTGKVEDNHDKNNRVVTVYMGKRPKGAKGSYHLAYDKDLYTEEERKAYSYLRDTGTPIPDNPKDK

[7] = mitochondrial function rescue without frataxin homolog – Friedreich's ataxia, plus single-dose screen, dose response (AID 1465); type: functional;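 note: yeast depleted of Yfh1p frataxin homolog grown on glycerol needing respiration; WST-1 tetrazolium dye reduction as measure of cellular dehydrogenase metabolic activity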
[8] = system: Streptococcus; assay: GAS UMAA2166 growth inhibition – luminescence, BacTiterGlo, counter-screen for streptokinase expression inhibitor project, dose response (AID 1915); type: functional, organism-based;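 note: potency for reduction of bacterial viability or growth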
[9] = target: Keap1/Nrf2 (Homo sapiens, UniProt Q14145); assay: disruptors of Keap1 binding to Nrf2 peptide – biochemical, fluorescence polarization, cherry-picked samples, dose response (AID 588683)
[10] = target: T2, CAAX prenyl protease 2 (Saccharomyces cerevisiae S288c, UniProt Q03530); type: biochemical
T2 sequence (Q03530 whole entry): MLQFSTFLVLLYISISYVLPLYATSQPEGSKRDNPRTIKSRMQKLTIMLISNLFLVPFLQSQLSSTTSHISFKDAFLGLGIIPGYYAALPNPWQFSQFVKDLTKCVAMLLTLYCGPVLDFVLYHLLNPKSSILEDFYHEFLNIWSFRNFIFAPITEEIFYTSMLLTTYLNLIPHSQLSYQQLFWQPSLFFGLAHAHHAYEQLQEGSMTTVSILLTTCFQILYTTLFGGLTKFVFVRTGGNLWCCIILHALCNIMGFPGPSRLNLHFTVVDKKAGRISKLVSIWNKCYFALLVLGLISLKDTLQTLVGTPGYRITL

[11] = toxicity toward cultured mammalian cells – cell-based, plate reader, cherry-pick samples, cytotoxicity control, dose response (AID 504397); type: functional
[12] = target: T3, Intestinal-type alkaline phosphatase (Homo sapiens, UniProt P09923); assay: Dose Response confirmation of uHTS hits from a small molecule inhibitors of human intestinal alkaline phosphatase via a luminescent assay. [Related pubchem assays (depositor defined):AID2544, AID2574]; type: functional
[13] = target: T3, Intestinal-type alkaline phosphatase; assay: human intestinal alkaline phosphatase activators, dose response, biochemical, luminescence, uHTS hits (AID 463120); type: functional
[14] = target: T4, Oxysterols receptor LXR-beta (Homo sapiens, UniProt P55055); type: functional, cell-based;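 note: Cell-based luminescence dose-response assay of agonist activity at LXR, run as a confirmatory counterscreen to a daf-12 agonist screen; HEK293 cells with Gal4-LXR fusion and GAL4-driven luciferase reporter; agonist potency from rising luciferase signal of a Gal4-LXR reporter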
T4 sequence (P55055 whole entry): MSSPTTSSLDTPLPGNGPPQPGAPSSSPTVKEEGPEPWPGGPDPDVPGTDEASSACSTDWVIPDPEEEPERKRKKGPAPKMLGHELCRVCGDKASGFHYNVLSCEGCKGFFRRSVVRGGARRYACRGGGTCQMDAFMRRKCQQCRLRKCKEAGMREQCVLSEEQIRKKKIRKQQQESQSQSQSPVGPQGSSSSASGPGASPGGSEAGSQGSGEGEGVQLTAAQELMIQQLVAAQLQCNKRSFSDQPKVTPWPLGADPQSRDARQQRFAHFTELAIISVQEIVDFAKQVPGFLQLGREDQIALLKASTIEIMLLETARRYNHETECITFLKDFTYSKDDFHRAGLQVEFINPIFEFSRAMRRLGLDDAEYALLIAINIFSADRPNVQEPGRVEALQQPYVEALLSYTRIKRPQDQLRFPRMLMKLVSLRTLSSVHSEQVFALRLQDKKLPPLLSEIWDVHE

[15] = cells

T3 sequence (P09923 whole entry): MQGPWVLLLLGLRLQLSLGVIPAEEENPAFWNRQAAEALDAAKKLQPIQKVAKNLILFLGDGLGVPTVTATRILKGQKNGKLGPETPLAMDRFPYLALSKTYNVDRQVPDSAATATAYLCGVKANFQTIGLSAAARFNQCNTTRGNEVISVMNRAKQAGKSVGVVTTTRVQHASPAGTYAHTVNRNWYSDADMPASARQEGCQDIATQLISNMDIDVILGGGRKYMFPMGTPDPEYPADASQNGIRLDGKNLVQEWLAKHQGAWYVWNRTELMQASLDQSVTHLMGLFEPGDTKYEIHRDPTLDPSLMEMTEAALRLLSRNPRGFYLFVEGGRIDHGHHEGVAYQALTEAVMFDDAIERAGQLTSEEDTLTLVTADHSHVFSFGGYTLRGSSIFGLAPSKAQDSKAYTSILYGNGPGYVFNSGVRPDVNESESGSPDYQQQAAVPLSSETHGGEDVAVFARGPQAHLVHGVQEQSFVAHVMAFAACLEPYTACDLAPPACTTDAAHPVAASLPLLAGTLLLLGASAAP
Chain of Keap1/Nrf2 (Q16236 whole entry): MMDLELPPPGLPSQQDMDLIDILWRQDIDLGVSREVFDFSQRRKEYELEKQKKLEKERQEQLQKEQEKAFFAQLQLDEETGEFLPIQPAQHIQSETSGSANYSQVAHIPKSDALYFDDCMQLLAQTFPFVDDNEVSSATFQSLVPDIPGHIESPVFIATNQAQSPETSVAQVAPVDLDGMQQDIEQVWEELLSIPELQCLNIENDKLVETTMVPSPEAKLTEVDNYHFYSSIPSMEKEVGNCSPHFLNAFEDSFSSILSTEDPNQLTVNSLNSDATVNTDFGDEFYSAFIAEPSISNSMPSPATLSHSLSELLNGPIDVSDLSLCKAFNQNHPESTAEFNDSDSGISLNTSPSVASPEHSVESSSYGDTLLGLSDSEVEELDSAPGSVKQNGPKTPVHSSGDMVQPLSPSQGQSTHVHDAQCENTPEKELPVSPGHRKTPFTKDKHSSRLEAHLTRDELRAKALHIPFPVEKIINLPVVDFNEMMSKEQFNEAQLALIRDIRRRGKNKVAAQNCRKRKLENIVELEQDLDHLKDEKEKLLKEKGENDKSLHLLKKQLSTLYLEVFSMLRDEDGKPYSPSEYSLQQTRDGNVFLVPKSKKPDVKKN
Chain of Keap1/Nrf2 (Q14145 whole entry): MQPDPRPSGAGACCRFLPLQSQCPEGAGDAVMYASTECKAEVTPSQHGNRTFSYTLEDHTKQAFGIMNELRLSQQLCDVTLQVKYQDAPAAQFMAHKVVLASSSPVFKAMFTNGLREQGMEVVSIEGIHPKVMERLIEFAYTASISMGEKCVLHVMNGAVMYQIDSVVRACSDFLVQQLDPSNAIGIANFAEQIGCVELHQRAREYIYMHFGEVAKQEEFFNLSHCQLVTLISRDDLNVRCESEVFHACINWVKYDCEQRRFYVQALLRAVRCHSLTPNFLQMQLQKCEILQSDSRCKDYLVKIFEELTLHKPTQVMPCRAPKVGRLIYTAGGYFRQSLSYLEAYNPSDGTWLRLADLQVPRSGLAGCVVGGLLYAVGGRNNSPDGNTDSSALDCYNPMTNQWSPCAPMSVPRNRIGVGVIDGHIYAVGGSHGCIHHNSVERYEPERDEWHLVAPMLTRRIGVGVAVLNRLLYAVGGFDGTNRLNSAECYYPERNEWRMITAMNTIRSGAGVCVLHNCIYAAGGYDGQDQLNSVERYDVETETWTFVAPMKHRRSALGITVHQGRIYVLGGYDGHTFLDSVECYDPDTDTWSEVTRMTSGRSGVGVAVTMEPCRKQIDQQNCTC

In the case of `CC(C)c1ccc(NC(=O)c2snc3ccc(Cl)cc23)cc1`, the AC50 [1] is reported as 3.02 µM (active), the AC50 [2] is reported as 52.8 µM (active) and the AC50 [3] is reported as 23.1 µM (active).
In the case of `O=C1CCCc2oc3c(cc(NS(=O)(=O)c4ccc5c6c(cccc46)C(=O)N5)c4ccccc43)c21`, the CC50 [4] is reported as 25.1 µM (active), the EC50 [5] is reported as 3.82 µM (active) and the EC50 [6] is reported as > 150 µM (not active). For the same molecule, the EC50 [7] was > 100 µM (active), the EC50 [8] was > 150 µM (not active) and the AC50 [9] was 51.2 µM (active).
In the case of `CCN(CC)CCN(C(=O)c1ccc2ccccc2c1)c1nc2ccc(F)cc2s1`, the AC50 [10] is reported as 6.18 µM (active) and the AC50 [11] is reported as 181 µM (active).
With `NC(=O)c1c(NC(=O)c2ccc(F)cc2)sc2c1CCC2` the IC50 [12] was > 100 µM (inactive), the EC50 [13] was > 100 µM (inactive) and the EC50 [14] was > 67.5 µM (inactive). The EC50 [15] was > 67.5 µM (inactive).
In the case of `Brc1csc(/C=N/Nc2nc3ccccc3s2)c1`, the AC50 [2] is reported as 46 µM (active).

Source: ChEMBL document CHEMBL1201862, “PubChem BioAssay data set” (2004)
